Results as given in patent US9249147B2, “Tyrosine kinase inhibitors” (CHEMBRIDGE CORPORATION, priority 2008, dated 2016).
Values after ≈ are worked out from the molar mass of the structure shown. Values joined by “and” are separate entries in the source; they are usually repeats but may differ in a detail not shown here. Equal entries are not always repeated. Where two headings read alike, the source gives them in different places.

Tests used:
Src = target: T1, Src (Homo sapiens, UniProt P12931); assay: Invitrogen SelectScreen Z-lyte kinase assay, Src; assay type: biochemical
T1 construct: purchased Invitrogen

[1] = Caco-2 (TC7) A-B Permeability test (pH 6.5/7.4); details: human
hERG = hERG (Homo sapiens, UniProt Q12809); assay: hERG standard patch clamp in HEK293 (Cerep ADMET Study 13170); assay type: cell-based; details: 1 μM
Sequence of hERG (Q12809 whole entry): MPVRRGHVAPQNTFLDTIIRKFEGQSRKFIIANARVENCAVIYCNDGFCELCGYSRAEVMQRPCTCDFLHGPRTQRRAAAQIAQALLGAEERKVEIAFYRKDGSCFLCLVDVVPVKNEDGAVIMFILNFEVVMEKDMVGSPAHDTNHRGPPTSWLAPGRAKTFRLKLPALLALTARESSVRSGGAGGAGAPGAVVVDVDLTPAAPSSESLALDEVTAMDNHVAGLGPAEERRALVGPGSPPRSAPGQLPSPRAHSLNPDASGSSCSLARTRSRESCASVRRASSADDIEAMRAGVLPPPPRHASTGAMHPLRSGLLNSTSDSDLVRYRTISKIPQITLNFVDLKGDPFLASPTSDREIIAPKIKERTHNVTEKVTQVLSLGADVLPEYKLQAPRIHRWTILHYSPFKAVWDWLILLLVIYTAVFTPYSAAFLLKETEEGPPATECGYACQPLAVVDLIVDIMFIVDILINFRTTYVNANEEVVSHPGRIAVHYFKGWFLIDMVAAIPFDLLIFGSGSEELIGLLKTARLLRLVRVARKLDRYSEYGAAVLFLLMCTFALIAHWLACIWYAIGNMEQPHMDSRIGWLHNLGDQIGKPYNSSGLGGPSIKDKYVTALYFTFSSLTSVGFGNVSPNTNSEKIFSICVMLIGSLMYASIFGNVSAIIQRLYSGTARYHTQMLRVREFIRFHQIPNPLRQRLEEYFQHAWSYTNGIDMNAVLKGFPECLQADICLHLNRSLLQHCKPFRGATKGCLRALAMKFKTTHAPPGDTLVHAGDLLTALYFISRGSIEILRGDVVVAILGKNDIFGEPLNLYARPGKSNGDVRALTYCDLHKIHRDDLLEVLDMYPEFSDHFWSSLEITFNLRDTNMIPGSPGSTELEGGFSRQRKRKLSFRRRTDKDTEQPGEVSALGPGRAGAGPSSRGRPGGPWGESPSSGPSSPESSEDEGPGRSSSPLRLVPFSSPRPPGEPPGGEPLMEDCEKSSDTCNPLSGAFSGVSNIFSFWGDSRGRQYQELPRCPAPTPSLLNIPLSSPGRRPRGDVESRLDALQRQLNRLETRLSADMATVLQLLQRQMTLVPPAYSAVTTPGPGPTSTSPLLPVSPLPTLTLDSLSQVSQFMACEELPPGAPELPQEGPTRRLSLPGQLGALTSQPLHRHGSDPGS
Protocol: The cardiac potassium channel, hERG, is responsible for the rapid delayed rectifier current (IKr) in the human ventricle. Inhibition of IKr is the most common cause of cardiac action potential prolongation by noncardiac drugs. Increased action potential duration causes prolongation of the QT interval that has been associated with a dangerous ventricular arrhythmia, torsade de pointer.
Compound (II) was initially tested at 1 μM concentration using a standard patch clamp protocol (Cerep ADMET Study 13170). The hERG channel was expressed in a human embryonic kidney (HEK293) cell line that lacks endogenous hERG channels. […] We have retested compound (II) in hERG assay in a range of lower concentrations to estimate IC50 of hERG inhibition more precisely (Qpatch 16 automated whole-cell patch clamp protocol in CHO-K1 cell line stably expressing hERG, Cerep hERG Study 13292). […] This kind of potency in hERG inhibition should not represent a significant clinical problem since the high degree of hERG inhibition would occur only at the compound concentrations above the expected therapeutic levels.

RET = RET (Homo sapiens, UniProt P07949); assay: Invitrogen SelectScreen Z-lyte kinase assay, Ret; assay type: biochemical; design: purchased Invitrogen (SelectScreen service); details: 100 μM ATP
Protocol: (§1) To evaluate selectivity versus other kinases, inhibition of various kinases by compound (II) was determined. In particular, IC50s for TrkA, Jak2, Axl tyrosine kinases were determined using ADP Hunter (DiscoverX) kinase assay. Single point profiling of compound (II) on 50 human tyrosine kinases and 10 Ser-Thr kinases was done at Upstate/Millipore by radiometric assay. […] The subset of the 520 kinases in the human kinome that were tested was strategically selected to cover most of the therapeutically relevant tyrosine kinases and to represent major branches of serine-threonine kinases.
(§2) Compound (II) was a multitargeted tyrosine kinase (TK) inhibitor with a distinct pattern of inhibition focused on ALK, Trk family, Ros and Ret kinases. Invitrogen SelectScreen (Z-lyte assay) produced the following IC5O values for this set of kinases: ALK 9.75 nM, TrkA 1.5 nM, TrkB 1.4 nM, TrkC 1.8 nM, Ret 7.1 nM, Ros 1.8 nM (all measured at 100 μM ATP). […] About 70% of the 50 TKs tested have selectivity in excess of 50-fold for ALK and higher for Ret, Ros and Trk family members.

ALK = ALK (Homo sapiens, UniProt Q9UM73); assay: Biochemical ALK inhibition (ADP Hunter, radiometric, Z-lyte); design: purchased DiscoveRx (ADP Hunter kit); Upstate/Millipore; Invitrogen
Sequence of ALK (Q9UM73 19-1620): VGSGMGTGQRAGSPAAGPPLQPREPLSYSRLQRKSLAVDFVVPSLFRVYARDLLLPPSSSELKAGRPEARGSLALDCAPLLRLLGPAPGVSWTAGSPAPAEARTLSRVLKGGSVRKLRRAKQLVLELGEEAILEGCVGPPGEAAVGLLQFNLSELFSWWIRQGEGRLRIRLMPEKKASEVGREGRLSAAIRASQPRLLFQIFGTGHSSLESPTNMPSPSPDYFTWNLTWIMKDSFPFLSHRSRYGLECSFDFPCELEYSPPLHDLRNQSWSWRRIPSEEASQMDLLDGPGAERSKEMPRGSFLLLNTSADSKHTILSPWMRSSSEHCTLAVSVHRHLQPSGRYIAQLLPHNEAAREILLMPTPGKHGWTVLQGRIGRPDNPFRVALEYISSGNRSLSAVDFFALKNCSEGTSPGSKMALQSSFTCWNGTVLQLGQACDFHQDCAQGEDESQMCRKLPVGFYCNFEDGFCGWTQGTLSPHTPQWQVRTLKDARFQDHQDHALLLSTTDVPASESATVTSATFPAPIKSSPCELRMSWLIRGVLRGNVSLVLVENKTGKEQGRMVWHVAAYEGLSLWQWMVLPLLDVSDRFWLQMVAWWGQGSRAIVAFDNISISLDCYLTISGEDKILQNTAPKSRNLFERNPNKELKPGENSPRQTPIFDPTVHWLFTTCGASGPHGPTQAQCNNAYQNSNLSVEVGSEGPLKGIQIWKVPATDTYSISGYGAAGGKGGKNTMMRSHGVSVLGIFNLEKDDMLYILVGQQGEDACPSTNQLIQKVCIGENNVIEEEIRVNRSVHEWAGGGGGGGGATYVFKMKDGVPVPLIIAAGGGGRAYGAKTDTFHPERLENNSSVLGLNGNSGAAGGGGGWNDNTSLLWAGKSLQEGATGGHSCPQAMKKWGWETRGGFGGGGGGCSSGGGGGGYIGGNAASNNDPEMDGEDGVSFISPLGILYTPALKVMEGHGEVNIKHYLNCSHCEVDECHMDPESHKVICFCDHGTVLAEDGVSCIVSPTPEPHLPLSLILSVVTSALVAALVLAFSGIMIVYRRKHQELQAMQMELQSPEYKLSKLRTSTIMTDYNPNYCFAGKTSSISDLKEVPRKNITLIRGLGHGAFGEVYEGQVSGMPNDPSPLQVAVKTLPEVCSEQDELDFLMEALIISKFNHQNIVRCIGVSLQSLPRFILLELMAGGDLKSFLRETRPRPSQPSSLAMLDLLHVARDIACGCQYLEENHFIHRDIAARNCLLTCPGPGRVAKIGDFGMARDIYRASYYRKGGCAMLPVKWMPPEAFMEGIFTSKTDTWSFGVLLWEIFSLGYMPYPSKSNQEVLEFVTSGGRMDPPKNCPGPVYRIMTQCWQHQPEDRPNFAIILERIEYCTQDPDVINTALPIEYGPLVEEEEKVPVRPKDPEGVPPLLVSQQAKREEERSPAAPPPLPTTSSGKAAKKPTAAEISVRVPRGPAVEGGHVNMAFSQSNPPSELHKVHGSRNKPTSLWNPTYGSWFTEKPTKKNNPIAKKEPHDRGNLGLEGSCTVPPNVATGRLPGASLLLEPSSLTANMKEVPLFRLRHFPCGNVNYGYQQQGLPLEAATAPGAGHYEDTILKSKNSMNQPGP
Protocol: Compound (II) (also labeled as CRL241 in some of the figures) was tested using several diverse assay technologies utilizing common assay readouts such as ADP generation detection and FRET or radiolabel-based measurement of phosphate incorporation in the substrate.
Biochemical potency of ALK inhibition (IC50) for compound (II) was determined in multiple experiments using a commercial ADP detection assay (ADP Hunter, DiscoveRx), and in radiometric (Upstate/Millipore) or FRET based fluorimetric (Z-lyte, Invitrogen) assays.

[2] = Pharmacokinetics study in CD-1 mice (IV, PO); assay type: in vivo; details: IV 1 mg/kg, time point 0.35, individual animals A-D
CYP2C9 = target: T2, CYP2C9 (Homo sapiens, UniProt P11712); assay: CYP2C9 Inhibition (recombinant, MFC substrate); assay type: in vitro ADME
T2 construct: purchased Cerep (contract assay, ADMET Study 13170)
T2 sequence (P11712 whole entry): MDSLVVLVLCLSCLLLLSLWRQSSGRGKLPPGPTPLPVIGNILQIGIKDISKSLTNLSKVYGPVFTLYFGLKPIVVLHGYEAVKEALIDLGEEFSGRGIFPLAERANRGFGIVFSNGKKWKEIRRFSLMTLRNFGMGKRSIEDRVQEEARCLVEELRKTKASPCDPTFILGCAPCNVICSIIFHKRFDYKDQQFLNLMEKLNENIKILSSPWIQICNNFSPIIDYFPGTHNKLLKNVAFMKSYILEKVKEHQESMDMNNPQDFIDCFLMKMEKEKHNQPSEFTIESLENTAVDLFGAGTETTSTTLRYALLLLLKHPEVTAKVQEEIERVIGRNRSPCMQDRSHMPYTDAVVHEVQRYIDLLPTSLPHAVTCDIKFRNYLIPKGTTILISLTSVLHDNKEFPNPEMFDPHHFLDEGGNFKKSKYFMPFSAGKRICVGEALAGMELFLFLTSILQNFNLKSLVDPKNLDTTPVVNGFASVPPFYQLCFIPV

TrkC = target: T3, TrkC (Homo sapiens, UniProt Q16288); assay: Invitrogen SelectScreen Z-lyte kinase assay, TrkC; assay type: biochemical; details: 100 μM ATP
T3 construct: purchased Invitrogen (SelectScreen service)
Protocol: as §1, §2

[3] = system: non-ALKdependent cell lines; assay: Cell proliferation inhibition, non-ALK-dependent control cell lines; assay type: cell-based; details: 12 unrelated cell lines; read-out: Lowest IC50s for non-ALK-dependent cell lines
Description: (§3) Cell proliferation inhibition assays were run for compound (II) with the five target NPM-ALK-dependent ALCL cell lines (Karpas 299, SuDHL-1, JB6, SupM2, UConn) and 12 unrelated cell lines (HEK293, CHO-K1, MCF7, HepG2, H292, H520, H1581, H596, H522, CHA-GO-K1, UMC-11, SK-MES1). […] The pronounced target cell-killing effect is also observed (molecular mechanisms to be determined).

Fer = target: T4, Fer (Homo sapiens, UniProt P16591); assay: Invitrogen SelectScreen Z-lyte kinase assay, Fer; assay type: biochemical
T4 construct: purchased Invitrogen
T4 sequence (P16591 whole entry): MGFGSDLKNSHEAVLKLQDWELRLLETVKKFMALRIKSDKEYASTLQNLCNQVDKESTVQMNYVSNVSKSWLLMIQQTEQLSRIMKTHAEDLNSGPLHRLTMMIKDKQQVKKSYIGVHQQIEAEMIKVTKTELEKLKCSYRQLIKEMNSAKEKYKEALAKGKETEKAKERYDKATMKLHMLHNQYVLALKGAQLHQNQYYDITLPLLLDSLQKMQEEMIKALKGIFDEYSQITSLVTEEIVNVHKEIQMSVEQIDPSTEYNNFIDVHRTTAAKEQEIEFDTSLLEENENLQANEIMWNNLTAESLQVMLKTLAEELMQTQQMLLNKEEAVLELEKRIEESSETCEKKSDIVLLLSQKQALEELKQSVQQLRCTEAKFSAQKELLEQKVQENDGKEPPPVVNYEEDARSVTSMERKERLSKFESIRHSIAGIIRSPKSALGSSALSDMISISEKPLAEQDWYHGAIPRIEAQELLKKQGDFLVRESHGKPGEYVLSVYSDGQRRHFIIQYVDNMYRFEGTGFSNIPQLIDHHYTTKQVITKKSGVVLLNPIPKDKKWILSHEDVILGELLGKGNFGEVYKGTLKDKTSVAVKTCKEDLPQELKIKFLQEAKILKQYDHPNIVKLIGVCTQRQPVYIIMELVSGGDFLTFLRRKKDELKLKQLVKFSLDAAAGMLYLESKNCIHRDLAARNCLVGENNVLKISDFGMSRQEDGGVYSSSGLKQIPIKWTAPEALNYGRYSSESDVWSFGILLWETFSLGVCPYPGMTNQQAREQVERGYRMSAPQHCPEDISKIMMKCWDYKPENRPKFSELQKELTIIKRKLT

[4] = Aqueous Solubility (PBS, pH 7.4); assay type: physicochemical; details: for solubility: pH 7.4, PBS
JB6 = assay: Cell proliferation inhibition, ALCL line JB6; assay type: cell-based; details: Example 4, most sensitive cell lines, read-out: Proliferation IC50 JB6
Description: as §3

CYP2D6 = target: T5, CYP2D6 (Homo sapiens, UniProt P10635); assay: CYP2D6 Inhibition (recombinant, MFC substrate); assay type: in vitro ADME
T5 construct: purchased Cerep (contract assay, ADMET Study 13170)
T5 sequence (P10635 whole entry): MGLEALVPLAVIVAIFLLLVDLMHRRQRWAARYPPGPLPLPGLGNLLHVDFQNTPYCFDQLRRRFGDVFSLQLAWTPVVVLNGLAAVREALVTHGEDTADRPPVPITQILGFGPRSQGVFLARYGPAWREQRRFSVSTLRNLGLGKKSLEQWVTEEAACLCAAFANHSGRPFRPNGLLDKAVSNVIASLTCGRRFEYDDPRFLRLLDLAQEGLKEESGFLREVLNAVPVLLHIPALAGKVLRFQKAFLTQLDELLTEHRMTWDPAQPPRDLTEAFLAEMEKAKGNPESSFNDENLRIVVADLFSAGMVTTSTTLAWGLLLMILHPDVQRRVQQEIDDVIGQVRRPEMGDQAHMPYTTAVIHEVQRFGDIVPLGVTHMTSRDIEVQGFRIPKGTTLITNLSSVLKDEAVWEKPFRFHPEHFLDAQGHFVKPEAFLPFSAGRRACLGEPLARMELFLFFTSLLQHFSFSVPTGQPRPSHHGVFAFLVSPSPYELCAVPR

[5] = Metabolic Stability (liver micros., human), Cerep Study 13170; assay type: in vitro ADME; details: 1.0E−06 M, human liver microsomes
UConn = assay: Cell proliferation inhibition, ALCL line UConn; assay type: cell-based; details: Example 4, least sensitive line; read-out: Proliferation IC50 UConn
Description: as §3

10 Ser-Thr kinases = assay: Single point radiometric profiling on Ser-Thr kinases (Upstate/Millipore); assay type: biochemical; details: 50 nM compound
Protocol: as §1

Cc1ccc(F)cc1C[C@H](C)Nc1cc[nH]c(=O)c1-c1nc2cc3c(cc2[nH]1)C(=O)N(CCN1CCCC1)C3 [compound (II)]
IC50 (Src): 32 nM
Papp A→B at 10 µM ([1]; Caco-2, pH 6.5, Caco-2 (TC7) A-B permeability coefficient, pH 6.5/7.4, 10 μM compound): 0.4 ×10⁻⁶ cm/s
recovery at 10 µM ([1]; Caco-2, pH 6.5, Caco-2 recovery, pH 6.5/7.4, 10 μM compound): 49%
Papp A→B at 10 µM ([1]; Caco-2, pH 6.5, Mean Permeability, A-B Permeability (TC7, pH 6.5/7.4), test concentration 1.0E−05 M, mean of n = 2): 0.4 ×10⁻⁶ cm/s
recovery at 10 µM ([1]; Caco-2, pH 6.5, Mean Recovery, A-B Permeability (TC7, pH 6.5/7.4), test concentration 1.0E−05 M, mean of n = 2): 49%
Papp A→B at 10 µM ([1]; Caco-2, pH 6.5, Permeability 1st, A-B Permeability (TC7, pH 6.5/7.4), test concentration 1.0E−05 M, 1st replicate): 0.41 ×10⁻⁶ cm/s
Papp A→B at 10 µM ([1]; Caco-2, pH 6.5, Permeability 2nd, A-B Permeability (TC7, pH 6.5/7.4), test concentration 1.0E−05 M, 2nd replicate): 0.44 ×10⁻⁶ cm/s
recovery at 10 µM ([1]; Caco-2, pH 6.5, Present Recovery 1st, A-B Permeability (TC7, pH 6.5/7.4), test concentration 1.0E−05 M, 1st replicate): 50%
recovery at 10 µM ([1]; Caco-2, pH 6.5, Present Recovery 2nd, A-B Permeability (TC7, pH 6.5/7.4), test concentration 1.0E−05 M, 2nd replicate): 47%
% inhibition of tail current (hERG): 50.4%
IC50 (RET): 7.1 nM
IC50 (ALK; ADP Hunter, radiometric and Z-lyte assays, 100 or 200 μM ATP): 9 to 11 nM
Selectivity for ALK versus the related IR and IGF1R (ALK; radiometric assay (Upstate/Millipore)): 10-15 fold
Plasma Concentration [2]: 100.41 ng/mL and 89.28 ng/mL and 41.61 ng/mL and 64.53 ng/mL
activity at 1 µM (CYP2C9; human, recombinant CYP2C9, probe MFC, 1.0E−06 M, Table 5B individual results, read-out: CYP2C9 % Inhibition of Control Values, 1st/2nd/3rd): 75.8%
activity at 5 µM (CYP2C9; human, recombinant CYP2C9, probe MFC, 5.0E−06 M, Table 5B individual results, read-out: CYP2C9 % Inhibition of Control Values, 1st/2nd/3rd): 63.8%
inhibition at 1 µM (CYP2C9; human, recombinant CYP2C9, probe MFC, 1.0E−06 M, read-out: CYP2C9 % Inhibition of Control Values): 20%
inhibition at 5 µM (CYP2C9; human, recombinant CYP2C9, probe MFC, 5.0E−06 M, read-out: CYP2C9 % Inhibition of Control Values): 41%
IC50 (CYP2C9; read-out: approximate IC50 CYP2C9): > 5000 nM
IC50 (TrkC): 1.8 nM
IC50 [3]: ~2500 nM
IC50 (Fer): 42 nM
Solubility 1st/2nd ([4]; pH 7.4, 2.0E−04 M, individual data, listed as CRL241): 33.81 μm
solubility ([4]; pH 7.4, 2.0E−04 M, Tables 9C, 9D, read-out: Solubility Mean): 33.9 µM (≈ 17.9 µg/mL)
solubility ([4]; pH 7.4, 2.0E−04 M, individual data, read-out: Solubility 1st/2nd): 34 µM (≈ 18 µg/mL)
solubility at 24 h ([4]; pH 7.4, test concentration 2.0E−04 M, 24 hours, RT): 34 µM (≈ 18 µg/mL)
IC50 (JB6): 5 to 10 nM
CYP2D6 inhibition (CYP2D6; 1 μM and 5 μM): No inhibition was detected
activity at 1 µM (CYP2D6; human, recombinant CYP2D6, probe MFC, 1.0E−06 M, Table 5B individual results, read-out: CYP2D6 % Inhibition of Control Values, 1st/2nd/3rd): 101%
activity at 5 µM (CYP2D6; human, recombinant CYP2D6, probe MFC, 5.0E−06 M, Table 5B individual results, read-out: CYP2D6 % Inhibition of Control Values, 1st/2nd/3rd): 84.9%
inhibition at 1 µM (CYP2D6; human, recombinant CYP2D6, probe MFC, 1.0E−06 M, read-out: CYP2D6 % Inhibition of Control Values): 2%
inhibition at 5 µM (CYP2D6; human, recombinant CYP2D6, probe MFC, 5.0E−06 M, read-out: CYP2D6 % Inhibition of Control Values): 16%
Mean Parent Remaining ([5]; 1 hr incubation): 73%
Parent Remaining Mean ([5]; Table 8B): 73%
Parent Remaining 1st/2nd ([5]; Table 8B, listed as CRL241): 70.3% and 76.4%
IC50 (UConn): 30 nM
Inhibition of 10 structurally diverse Ser-Thr kinases (10 Ser-Thr kinases): did not cause any significant inhibition
